Assay results from article PMC8942544, “Design and synthesis of benzodiazepines as brain penetrating PARP-1 inhibitors” (Journal of Enzyme Inhibition and Medicinal Chemistry, 2022).

Each molecule was assayed against T1, PARP-1 (Homo sapiens, UniProt P09874) (assay: PARP-1 enzyme inhibition assay (BPS Bioscience PARP Colorimetric Assay Kit)). Conditions: compound concentration 50 nM; three independent tests.
T1 construct: purchased BPS Bioscience 80580
Format: biochemical
Procedure: All target compounds were evaluated for PARP-1 enzyme inhibition activity at the concentration of 50 nM determined by previous pre-experiments.
The ability of the compounds to inhibit PARP-1 enzyme activity was assessed using BPS Bioscience's PARP Colorimetric Assay Kit (BPS Bioscience, Catalog # 80580). PARP-1 is known to catalyse the NAD-dependent addition of poly(ADP-ribose) to histones. The PARP-1 assay kit comes in a convenient 96-well format, with purified PARP-1 enzyme, histone mixture, activated DNA, and PARP-1 assay buffer. The key to the PARP-1 Colorimetric Activity Assay is the biotinylated substrate. With this kit, only three simple steps are required for PARP-1 reactions. First, histone proteins are coated on a 96-well plate. Next, the PARP-1 biotinylated substrate is incubated with an assay buffer that contains the PARP-1 enzyme. Finally, the plate is treated with streptavidin-HRP followed by the addition of the colorimetric HRP substrate to produce colour that can then be measured using a UV/Vis spectrophotometer microplate reader. IC50 values were calculated using GraphPad Prism5 software.

T1 sequence (P09874 whole entry): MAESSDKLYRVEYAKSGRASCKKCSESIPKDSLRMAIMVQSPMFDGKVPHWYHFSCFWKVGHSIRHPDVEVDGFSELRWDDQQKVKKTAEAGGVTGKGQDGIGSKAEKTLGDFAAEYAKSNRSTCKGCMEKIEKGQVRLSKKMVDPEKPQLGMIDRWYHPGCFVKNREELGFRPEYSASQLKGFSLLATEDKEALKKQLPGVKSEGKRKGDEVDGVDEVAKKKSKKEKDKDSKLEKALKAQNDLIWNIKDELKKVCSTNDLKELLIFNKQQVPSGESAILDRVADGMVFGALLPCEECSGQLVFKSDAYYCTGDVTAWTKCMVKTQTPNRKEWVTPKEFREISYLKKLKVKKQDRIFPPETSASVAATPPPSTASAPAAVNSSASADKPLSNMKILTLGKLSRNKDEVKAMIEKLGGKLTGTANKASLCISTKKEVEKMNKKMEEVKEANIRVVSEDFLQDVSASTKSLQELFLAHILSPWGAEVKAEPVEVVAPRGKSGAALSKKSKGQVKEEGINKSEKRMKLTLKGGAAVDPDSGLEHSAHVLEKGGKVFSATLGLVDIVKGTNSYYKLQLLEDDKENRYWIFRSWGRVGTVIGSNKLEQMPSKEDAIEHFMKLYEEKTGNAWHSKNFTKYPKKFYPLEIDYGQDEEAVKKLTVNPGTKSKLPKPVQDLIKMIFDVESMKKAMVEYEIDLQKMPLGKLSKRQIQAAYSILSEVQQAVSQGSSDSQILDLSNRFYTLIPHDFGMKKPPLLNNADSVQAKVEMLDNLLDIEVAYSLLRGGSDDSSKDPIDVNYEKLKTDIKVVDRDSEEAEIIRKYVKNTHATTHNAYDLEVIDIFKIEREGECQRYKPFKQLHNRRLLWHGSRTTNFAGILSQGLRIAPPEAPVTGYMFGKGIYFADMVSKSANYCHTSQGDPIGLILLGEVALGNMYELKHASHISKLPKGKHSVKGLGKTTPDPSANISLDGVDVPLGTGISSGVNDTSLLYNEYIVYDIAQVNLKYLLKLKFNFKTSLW

| SMILES | inhibition at 0.05 µM |
| --- | --- |
| O=C1NCCNc2ccccc21 [Compound H1] | 6.2 ± 5.2% |
| N#Cc1ccc(C2=Nc3ccccc3C(=O)NC2)cc1 [Compound H12, 4-(5-Oxo-4,5-dihydro-3H-benzo[e][1,4]diazepin-2-yl)benzonitrile] | 15.7 ± 4.1% |
| CN1CC=C(c2ccc(C3=Nc4ccccc4C(=O)NC3)cc2)CC1 [Compound H45, 2-(4-(1-Methyl-1,2,3,6-tetrahydropyridin-4-yl)phenyl)-3,4-dihydro-5H-benzo[e][1,4]diazepin-5-one] | 42.5 ± 6% |
| O=C1NCC(c2ccc(Br)cc2)Nc2ccccc21 (centres unmarked) [Compound H27, 2-(4-Bromophenyl)-1,2,3,4-tetrahydro-5H-benzo[e][1,4]diazepin-5-one] | 43.2 ± 2.5% |
| O=C1NCC(c2ccc(Cl)cc2)=Nc2ccccc21 [Compound H10, 2-(4-Chlorophenyl)-3,4-dihydro-5H-benzo[e][1,4]diazepin-5-one] | 33 ± 2.4% |
| O=C1NCC(c2ccc(F)cc2)=Nc2ccccc21 [Compound H8, 2-(4-Fluorophenyl)-3,4-dihydro-5H-benzo[e][1,4]diazepin-5-one] | 32.1 ± 3.6% |
| COc1ccc(C2CNC(=O)c3ccccc3N2)cc1OC (centres unmarked) [Compound H26, 2-(3,4-Dimethoxyphenyl)-1,2,3,4-tetrahydro-5H-benzo[e][1,4]diazepin-5-one] | 37.4 ± 3.9% |
| O=C1NCC(c2cc(F)cc(F)c2)=Nc2ccccc21 [Compound H15, 2-(3,5-Difluorophenyl)-3,4-dihydro-5H-benzo[e][1,4]diazepin-5-one] | 36.9 ± 1.4% |
| O=C1NCC(c2ccc(F)cc2)Nc2ccccc21 (centres unmarked) [Compound H22, 2-(4-Fluorophenyl)-1,2,3,4-tetrahydro-5H-benzo[e][1,4]diazepin-5-one] | 33 ± 3% |
| COc1ccc(C2=Nc3ccccc3C(=O)NC2)cc1OC [Compound H16, 2-(3,4-Dimethoxyphenyl)-3,4-dihydro-5H-benzo[e][1,4]diazepin-5-one] | 24.4 ± 3.2% |
| COc1cccc(C2CNC(=O)c3ccccc3N2)c1 (centres unmarked) [Compound H21, 2-(3-Methoxyphenyl)-1,2,3,4-tetrahydro-5H-benzo[e][1,4]diazepin-5-one] | 27.3 ± 2.3% |
| O=C1NCC(c2ccc(Cl)c(Cl)c2)=Nc2ccccc21 [Compound H17, 2-(3,4-Dichlorophenyl)-3,4-dihydro-5H-benzo[e][1,4]diazepin-5-one] | 34.4 ± 3.6% |
| O=C1NCC(c2ccc(F)cc2F)Nc2ccccc21 (centres unmarked) [Compound H24, 2-(2,4-Difluorophenyl)-1,2,3,4-tetrahydro-5H-benzo[e][1,4]diazepin-5-one] | 34.8 ± 2.1% |
| O=C1NCC(c2cccc(Cl)c2)=Nc2ccccc21 [Compound H11, 2-(3-Chlorophenyl)-3,4-dihydro-5H-benzo[e][1,4]diazepin-5-one] | 28.7 ± 2.6% |
| O=C1NCC(c2ccccc2)=Nc2ccccc21 [Compound H4, 2-Phenyl-3,4-dihydro-5H-benzo[e][1,4]diazepin-5-one] | 28.8 ± 3.4% |
| COc1cccc(C2=Nc3ccccc3C(=O)NC2)c1 [Compound H7, 2-(3-Methoxyphenyl)-3,4-dihydro-5H-benzo[e][1,4]diazepin-5-one] | 34.7 ± 2.9% |
| O=C1NCC(c2cccc(F)c2)=Nc2ccccc21 [Compound H9, 2-(3-Fluorophenyl)-3,4-dihydro-5H-benzo[e][1,4]diazepin-5-one] | 36.6 ± 3% |
| O=C1NCCCc2ccccc21 [Compound H2] | 5.2 ± 3.1% |
| O=C1NCC(c2ccc(O)cc2)=Nc2ccccc21 [Compound H13, 2-(4-Hydroxyphenyl)-3,4-dihydro-5H-benzo[e][1,4]diazepin-5-one] | 37.9 ± 2.3% |
| O=C1NCC(c2cc(F)cc(F)c2)Nc2ccccc21 (centres unmarked) [Compound H25, 2-(3,5-Difluorophenyl)-1,2,3,4-tetrahydro-5H-benzo[e][1,4]diazepin-5-one] | 39.2 ± 4.5% |
| O=C1NCC(c2cccc(F)c2)Nc2ccccc21 (centres unmarked) [Compound H23, 2-(3-Fluorophenyl)-1,2,3,4-tetrahydro-5H-benzo[e][1,4]diazepin-5-one] | 32.1 ± 1.6% |
| O=C1CCNc2ccccc2N1 [Compound H3] | 3.6 ± 2.5% |
| Cc1ccc(C2=Nc3ccccc3C(=O)NC2)cc1 [Compound H5, 2-(p-Tolyl)-3,4-dihydro-5H-benzo[e][1,4]diazepin-5-one] | 37.1 ± 2.7% |
| O=C1NCC(c2ccc(Br)cc2)=Nc2ccccc21 [Compound H19, 2-(4-Bromophenyl)-3,4-dihydro-5H-benzo[e][1,4]diazepin-5-one] | 38.4 ± 1.9% |
| COc1ccc(C2CNC(=O)c3ccccc3N2)cc1 (centres unmarked) [Compound H20, 2-(4-Methoxyphenyl)-1,2,3,4-tetrahydro-5H-benzo[e][1,4]diazepin-5-one] | 27.9 ± 1.8% |

Other lines, results leading:

| inhibition at 0.05 µM | SMILES |
| --- | --- |
| 48.6 ± 1.2% | O=C1NCC(c2ccc(-c3cn[nH]c3)cc2)=Nc2ccccc21 [Compound H32, 2-(4-(1H-pyrazol-4-yl)phenyl)-3,4-dihydro-5H-benzo[e][1,4]diazepin-5-one] |
| 40.8 ± 4.7% | Nc1cccc(-c2ccc(C3=Nc4ccccc4C(=O)NC3)cc2)c1 [Compound H36, 2-(3'-Amino-[1,1'-biphenyl]-4-yl)-3,4-dihydro-5H-benzo[e][1,4]diazepin-5-one] |
| 41.4 ± 3.5% | O=C1NCC(c2ccc(-c3cccc(C(F)(F)F)c3)cc2)=Nc2ccccc21 [Compound H43, 2-(3′-(Trifluoromethyl)-[1,1′-biphenyl]-4-yl)-3,4-dihydro-5H-benzo[e][1,4]diazepin-5-one] |
| 22.1 ± 3.2% | CN1CC(c2ccc(Br)cc2)N(C)c2ccccc2C1=O (centres unmarked) [Compound H29, 2-(4-Bromophenyl)-1,4-dimethyl-1,2,3,4-tetrahydro-5H-benzo[e][1,4]diazepin-5-one] |
| 46.1 ± 3.9% | Nc1ccc(-c2ccc(C3=Nc4ccccc4C(=O)NC3)cc2)cc1 [Compound H37, 2-(4′-Amino-[1,1′-biphenyl]-4-yl)-3,4-dihydro-5H-benzo[e][1,4]diazepin-5-one] |
| 34.7 ± 4.2% | Nc1ccc(-c2ccc(C3=Nc4ccccc4C(=O)NC3)cc2)cn1 [Compound H38, 2-(4-(6-Aminopyridin-3-yl)phenyl)-3,4-dihydro-5H-benzo[e][1,4]diazepin-5-one] |
| 24 ± 5.7% | CN1CC(c2ccc(Br)cc2)Nc2ccccc2C1=O (centres unmarked) [Compound H28, 2-(4-Bromophenyl)-4-methyl-1,2,3,4-tetrahydro-5H-benzo[e][1,4]diazepin-5-one] |
| 14.9 ± 8.2% | O=C1NCC(c2ccc(-c3ccc4[nH]c5ccccc5c4c3)cc2)=Nc2ccccc21 [Compound H46, 2-(4-(9H-carbazol-3-yl)phenyl)-3,4-dihydro-5H-benzo[e][1,4]diazepin-5-one] |
| 35.4 ± 2.4% | COc1ncc(-c2ccc(C3=Nc4ccccc4C(=O)NC3)cc2)cc1N [Compound H40, 2-(4-(5-Amino-6-methoxypyridin-3-yl)phenyl)-3,4-dihydro-5H-benzo[e][1,4]diazepin-5-one] |
| 29.9 ± 3.4% | CC(C)N1CCN(c2ccc(C3CNC(=O)c4ccccc4N3)cc2)CC1 (centres unmarked) [Compound H53, 2-(4-(4-Isopropylpiperazin-1-yl)phenyl)-1,2,3,4-tetrahydro-5H-benzo[e][1,4]diazepin-5-one] |
| 48.8 ± 3.7% | O=C1NCC(c2ccc(-c3cccc(C(F)(F)F)c3)cc2)Nc2ccccc21 (centres unmarked) [Compound H51, 2-(3′-(Trifluoromethyl)-[1,1′-biphenyl]-4-yl)-1,2,3,4-tetrahydro-5H-benzo[e][1,4]diazepin-5-one] |
| 44.3 ± 6.2% | Cn1nccc1-c1ccc(C2=Nc3ccccc3C(=O)NC2)cc1 [Compound H35, 2-(4-(1-Methyl-1H-pyrazol-5-yl)phenyl)-3,4-dihydro-5H-benzo[e][1,4]diazepin-5-one] |
| 33.9 ± 5.3% | Nc1ncc(-c2ccc(C3=Nc4ccccc4C(=O)NC3)cc2)cn1 [Compound H39, 2-(4-(2-Aminopyrimidin-5-yl)phenyl)-3,4-dihydro-5H-benzo[e][1,4]diazepin-5-one] |
| 28.3 ± 8.8% | COc1cccc(-c2ccc(C3=Nc4ccccc4C(=O)NC3)cc2)c1 [Compound H41, 2-(3′-Methoxy-[1,1′-biphenyl]-4-yl)-3,4-dihydro-5H-benzo[e][1,4]diazepin-5-one] |
| 45.1 ± 5.2% | O=C1NCC(c2ccc(-c3ccc(C(F)(F)F)cc3)cc2)=Nc2ccccc21 [Compound H44, 2-(4′-(Trifluoromethyl)-[1,1′-biphenyl]-4-yl)-3,4-dihydro-5H-benzo[e][1,4]diazepin-5-one] |
| 39.3 ± 5.2% | C[C@@H]1CN(c2ccc(C3CNC(=O)c4ccccc4N3)cc2)C[C@H](C)O1 (stereo partly drawn) [Compound H55, 2-(4-((2S,6R)-2,6-dimethylmorpholino)phenyl)-1,2,3,4-tetrahydro-5H-benzo[e][1,4]diazepin-5-one] |
| 38.5 ± 4.5% | COc1cccc(-c2ccc(C3CNC(=O)c4ccccc4N3)cc2)c1 (centres unmarked) [Compound H49, 2-(3′-Methoxy-[1,1′-biphenyl]-4-yl)-1,2,3,4-tetrahydro-5H-benzo[e][1,4]diazepin-5-one] |
| 28.5 ± 3.4% | CC1NC(=O)c2ccccc2NC1c1ccc(Br)cc1 (centres unmarked) [Compound H31, 2-(4-Bromophenyl)-3-methyl-1,2,3,4-tetrahydro-5H-benzo[e][1,4]diazepin-5-one] |
| 48.7 ± 5.7% | Nc1cccc(-c2ccc(C3CNC(=O)c4ccccc4N3)cc2)c1 (centres unmarked) [Compound H47, 2-(3′-Amino-[1,1′-biphenyl]-4-yl)-1,2,3,4-tetrahydro-5H-benzo[e][1,4]diazepin-5-one] |
